What was measured:
CDK2/Cyclin E2 = CDK2/Cyclin E2 (Homo sapiens, UniProt P24941); assay: CDK2/CyclinE2 Enzymatic Activity Assay (TR-FRET); assay type: biochemical; settings: CDK2/CyclinE2 1 nM, ATP 1 mM, read-out: CDK2_El IC50
Description: CDK2/CyclinE2 Enzymatic Activity Assay
The inhibitory activity of compounds was evaluated in vitro using TR-FRET assay with white 384-well low volume microplate (Greiner Bio-One). CDK2/Cyclin E2 catalyzed phosphorylation of peptide in the presence and absence of compounds was measured and used in IC50 determination. Recombinant protein complex CDK2/Cyclin E2, expressed from insect cell, was purchased from ProQinase. Testing compounds were dissolved in DMSO at 1 mM and tested in 9-dose IC50 mode. The reaction mixture was prepared by mixing CDK2/CyclinE2 (1 nM final), ULight-4E-BP1 (50 nM final, Perkinelmer, TRF0128-D), and ATP (1 mM final) in assay buffer (20 mM of HEPES pH 7.4, 1 mM of EGTA, 0.05% BSA, 0.005% Tween 20, and 1 mM TCEP). The compound of interest in DMSO was added to each well in 3-fold serial dilution by dispenser (TECAN D300E) to make a 9.9 μL of reaction mixture. After 20 minutes preincubation at room temperature, 0.1 μL MgCl2 (10 mM final) was added to initiate the reaction. Following a 45 minute incubation at 37° C., the reaction was stopped by addition of 2 μL of quenching buffer consisting of Lance detection buffer (Perkinelmer CR97-100C), LANCE Ultra Europium-anti-P-4E-BP1 (Perkinelmer, TRF0216-D), EDTA, and incubate at room temperature for additional 60 minutes in the dark. The reaction signal was measured by Envision multimode plate reader (PerkinElmer, 2102-0010). IC50 values were determined by fitting the data to the standard 4 parameters with Hill Slope using GraphPad Prism software.

CDK4/Cyclin D1 = molecular target: T1, CDK4/Cyclin D1 (Homo sapiens, UniProt P11802); assay: CDK4/CyclinD1 Enzymatic Activity Assay (TR-FRET); assay type: biochemical; settings: CDK4/CyclinD1 1 nM, ATP 2 mM, read-out: CDK4_D1 IC50
T1 construct: purchased ProQinase; host or cells: insect cell
T1 sequence (P11802 whole entry): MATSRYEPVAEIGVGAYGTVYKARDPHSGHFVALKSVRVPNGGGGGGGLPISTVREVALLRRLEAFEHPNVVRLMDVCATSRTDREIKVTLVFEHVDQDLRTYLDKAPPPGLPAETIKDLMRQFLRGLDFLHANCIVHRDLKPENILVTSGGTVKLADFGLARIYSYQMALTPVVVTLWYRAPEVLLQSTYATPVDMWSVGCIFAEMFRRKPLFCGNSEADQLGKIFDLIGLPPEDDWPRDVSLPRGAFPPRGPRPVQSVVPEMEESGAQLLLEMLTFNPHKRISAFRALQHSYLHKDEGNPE
T1 sequence (P24385 whole entry partner): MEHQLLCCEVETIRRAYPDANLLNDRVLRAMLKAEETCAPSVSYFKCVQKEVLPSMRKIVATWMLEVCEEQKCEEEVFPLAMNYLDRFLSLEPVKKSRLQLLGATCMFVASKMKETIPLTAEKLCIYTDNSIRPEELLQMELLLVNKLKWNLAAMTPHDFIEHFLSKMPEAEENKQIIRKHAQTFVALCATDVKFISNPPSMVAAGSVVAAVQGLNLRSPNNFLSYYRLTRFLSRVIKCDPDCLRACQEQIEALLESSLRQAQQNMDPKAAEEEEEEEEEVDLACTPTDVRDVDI
Description: CDK4/CyclinD1 Enzymatic Activity Assay
The inhibitory activity of compounds was evaluated in vitro using TR-FRET assay with white 384-well low volume microplate (Greiner Bio-One). CDK4/Cyclin D1 catalyzed phosphorylation of peptide in the presence and absence of compounds was measured and used in IC50 determination. Recombinant protein complex CDK4/Cyclin D1, expressed from insect cell, was purchased from ProQinase. Testing compounds were dissolved in DMSO at 1 mM and tested in 9-dose IC50 mode. The reaction mixture was prepared by mixing CDK4/CyclinD1 (1 nM final), ULight-4E-BP1 (100 nM final, Perkinelmer, TRF0128-D), and ATP (2 mM final) in assay buffer (20 mM of HEPES pH 7.4, 1 mM of EGTA, 0.05% BSA, 0.005% Tween 20, and 1 mM TCEP). The compound of interest in DMSO was added to each well in 3-fold serial dilution by the dispenser (TECAN D300E) to make a 9.9 μL of reaction mixture. After 20 minutes preincubation at room temperature, 0.1 μL MgCl2 (10 mM final) was added to initiate the reaction. Following a 45 minute incubation at 37° C., the reaction was stopped by addition of 2 μL of quenching buffer consisting of Lance detection buffer (Perkinelmer CR97-100C), LANCE Ultra Europium-anti-P-4E-BP1 (Perkinelmer, TRF0216-D), EDTA, and incubated at room temperature for additional 60 minutes in dark. The reaction signal was measured by Envision multimode plate reader (PerkinElmer, 2102-0010). IC50 values were determined by fitting the data to the standard 4 parameters with Hill Slope using GraphPad Prism software.

pRB in OVCAR3 cells = assay: pRB ICW Assay in OVCAR3 Cells; assay type: cell-based; settings: Homo sapiens, OVCAR-3, incubated with compound for 2 hours, read-out: OVCAR3 p-RB ICW IC50
Description: pRB ICW Assay in OVCAR3 Cells
OVCAR3 cells were maintained in RPMI (Corning, Catalog #: 10-040-CV) supplemented with 10% v/v FBS (Gibco, Catalog #: 26140-079), 1% v/v Penicillin Streptomycin (Gibco, Catalog #15140-122.) OVCAR3 cells grown at log phase were trypsinized, counted, and resuspended in fresh medium to reach a final density of 6.7e4 cells/mL and 75 μL of culture were dispensed into a 384-well plate (Falcon, cat #353962) using a Multidrop Combi dispenser (Thermo Scientific). The next day, compounds were dispensed as a 9-point, ½ log serial dilution using a Tecan digital dispenser (D300e), and cells were incubated with compound for 2 hours in a humidified incubator at 37° C. A reference compound at a final concentration of 10 μM was used as a control for maximum inhibition. Each compound was tested in duplicates for each experiment. At the end of the incubation, 25 μL of 16% paraformaldehyde (Electron Microscopy, cat #15710) was slowly added to each well and the plate was incubated at room temperature (RT) for 30 minutes to fix cells. Cells were then permeabilized by incubating with 50 μL/well of wash buffer (lx PBS with 0.1% Triton X-100) 5×5 minutes, followed by 1 hour blocking with 30 μL/well of Odyssey blocking buffer (Li—COR, cat #927-40000), at RT. Anti-phosphor RB antibody (Cell signaling 8516S) was diluted 1:1000 in Odyssey blocking buffer and 20 μL was added to all wells and incubated overnight in 4° C. with gently rocking. The next day, cells were washed 5×5 min with 50 μL/well of wash buffer, followed with 1 hour incubation with secondary antibody and DRAQ5 diluted in Odyssey blocking buffer (1:500 dilution for secondary antibody and 1:2000 dilution for DRAQ5), 5×5 min washes, and one last wash with water. Plates were dried in 37° C. oven for 5 minutes and scanned using Li—COR Odyssey CLx imaging system to acquire intensities at 700 and 800 nm channels.

SMILES | IC50 (CDK2/Cyclin E2) [nM] | IC50 (CDK4/Cyclin D1) [nM] | IC50 (pRB in OVCAR3 cells) [nM]
CS(=O)(=O)N1CCC(Nc2ncc(C(F)(F)F)c(-c3cc4c(s3)C3(C5CC(O)C5)CCCN3C4=O)n2)CC1 (stereo not drawn) [Example 25, 8a-(3-Hydroxycyclobutyl)-2-(2-((1-(methylsulfonyl)piperidin-4-yl)amino)-5-(trifluoromethyl)pyrimidin-4-yl)-6,7,8,8a-tetrahydro-4H-thieno[2,3-a]pyrrolizin-4-one] | ≤ 100 | ≤ 100 | ≤ 100
CS(=O)(=O)N1CCC(Nc2ncc(C(F)(F)F)c(-c3cc4c(s3)C3(C5CC(F)C5)CCCN3C4=O)n2)CC1 (stereo not drawn) [Example 26, 8a-(3-Fluorocyclobutyl)-2-(2-((1-(methylsulfonyl)piperidin-4-yl)amino)-5-(trifluoromethyl)pyrimidin-4-yl)-6,7,8,8a-tetrahydro-4H-thieno[2,3-a]pyrrolizin-4-one] | ≤ 100 | ≤ 100 | 100 to 500
CCC12CCCN1C(=O)c1cc(-c3nc(NC4CCN(S(C)(=O)=O)CC4)ncc3Cl)sc12 (stereo not drawn) [Example 27, 2-(5-Chloro-2-((1-(methylsulfonyl)piperidin-4-yl)amino)pyrimidin-4-yl)-8a-ethyl-6,7,8,8a-tetrahydro-4H-thieno[2,3-a]pyrrolizin-4-one] | ≤ 100 | ≤ 100 | ≤ 100
CCC12CC(O)CN1C(=O)c1cc(-c3nc(NC4CCN(S(C)(=O)=O)CC4)ncc3C(F)(F)F)sc12 (stereo not drawn) [Example 33, 8a-Ethyl-7-hydroxy-2-(2-((1-(methylsulfonyl)piperidin-4-yl)amino)-5-(trifluoromethyl)pyrimidin-4-yl)-6,7,8,8a-tetrahydro-4H-thieno[2,3-a]pyrrolizin-4-one] | ≤ 100 | ≤ 100 | ≤ 100
CCC12CC(O)CN1C(=O)c1cc(-c3nc(NC4CCN(S(=O)(=O)c5cnn(C)c5)CC4)ncc3C(F)(F)F)sc12 (stereo not drawn) [Example 36, 8a-Ethyl-7-hydroxy-2-(2-((1-((1-methyl-1H-pyrazol-4-yl)sulfonyl)piperidin-4-yl)amino)-5-(trifluoromethyl)pyrimidin-4-yl)-6,7,8,8a-tetrahydro-4H-thieno[2,3-a]pyrrolizin-4-one] | ≤ 100 | ≤ 100 | ≤ 100
CCC12CC(NC)CN1C(=O)c1cc(-c3nc(N[C@H]4CCN(S(C)(=O)=O)C[C@H]4C)ncc3C(F)(F)F)sc12 (stereo partly drawn) [Example 43, 8a-Ethyl-2-(2-(((3R,4S)-3-methyl-1-(methylsulfonyl)piperidin-4-yl)amino)-5-(trifluoromethyl)pyrimidin-4-yl)-7-(methylamino)-6,7,8,8a-tetrahydro-4H-thieno[2,3-a]pyrrolizin-4-one] | ≤ 100 | ≤ 100 | 100 to 500
CCC12CC(N)CN1C(=O)c1cc(-c3nc(N[C@H]4CCN(S(=O)(=O)c5cnn(C)c5)C[C@H]4C)ncc3C(F)(F)F)sc12 (stereo partly drawn) [Example 46, 7-Amino-8a-ethyl-2-(2-(((3R,4S)-3-methyl-1-((1-methyl-1H-pyrazol-4-yl)sulfonyl)piperidin-4-yl)amino)-5-(trifluoromethyl)pyrimidin-4-yl)-6,7,8,8a-tetrahydro-4H-thieno[2,3-a]pyrrolizin-4-one] | ≤ 100 | ≤ 100 | ≤ 100
CS(=O)(=O)N1CCC(Nc2ncc(C(F)(F)F)c(-c3cc4c(s3)C3(C5CCC5)CCCN3C4=O)n2)CC1 (stereo not drawn) [Example 23, 8a-Cyclobutyl-2-(2-((1-(methylsulfonyl)piperidin-4-yl)amino)-5-(trifluoromethyl)pyrimidin-4-yl)-6,7,8,8a-tetrahydro-4H-thieno[2,3-a]pyrrolizin-4-one] | ≤ 100 | ≤ 100 | 100 to 500
CS(=O)(=O)N1CCC(Nc2ncc(C(F)(F)F)c(-c3cc4c(s3)C3(CCF)CCCN3C4=O)n2)CC1 (stereo not drawn) [Example 19, 8a-(2-Fluoroethyl)-2-(2-((1-(methylsulfonyl)piperidin-4-yl)amino)-5-(trifluoromethyl)pyrimidin-4-yl)-6,7,8,8a-tetrahydro-4H-thieno[2,3-a]pyrrolizin-4-one] | ≤ 100 | ≤ 100 | ≤ 100
CCC12CC(C)(O)CN1C(=O)c1cc(-c3nc(NC4CCN(S(C)(=O)=O)CC4)ncc3C(F)(F)F)sc12 (stereo not drawn) [Example 34, 8a-Ethyl-7-hydroxy-7-methyl-2-(2-((1-(methylsulfonyl)piperidin-4-yl)amino)-5-(trifluoromethyl)pyrimidin-4-yl)-6,7,8,8a-tetrahydro-4H-thieno[2,3-a]pyrrolizin-4-one] | ≤ 100 | ≤ 100 | ≤ 100
CCC12CC(NC)CN1C(=O)c1cc(-c3nc(N[C@H]4CCN(S(C)(=O)=O)C[C@H]4F)ncc3C(F)(F)F)sc12 (stereo partly drawn) [Example 48, 8a-Ethyl-2-(2-(((3R,4S)-3-fluoro-1-(methylsulfonyl)piperidin-4-yl)amino)-5-(trifluoromethyl)pyrimidin-4-yl)-7-(methylamino)-6,7,8,8a-tetrahydro-4H-thieno[2,3-a]pyrrolizin-4-one] | ≤ 100 | ≤ 100 | ≤ 100
CCC12CC(N(C)C)CN1C(=O)c1cc(-c3nc(NC4CCN(S(=O)(=O)c5cnn(C)c5)CC4)ncc3C(F)(F)F)sc12 (stereo not drawn) [Example 50, 7-(Dimethylamino)-8a-ethyl-2-(2-((1-((1-methyl-1H-pyrazol-4-yl)sulfonyl)piperidin-4-yl)amino)-5-(trifluoromethyl)pyrimidin-4-yl)-6,7,8,8a-tetrahydro-4H-thieno[2,3-a]pyrrolizin-4-one] | ≤ 100 | ≤ 100 | ≤ 100
CCNC1CN2C(=O)c3cc(-c4nc(NC5CCN(S(C)(=O)=O)CC5)ncc4C(F)(F)F)sc3C2(CC)C1 (stereo not drawn) [Example 41, 8a-Ethyl-7-(ethylamino)-2-(2-((1-(methylsulfonyl)piperidin-4-yl)amino)-5-(trifluoromethyl)pyrimidin-4-yl)-6,7,8,8a-tetrahydro-4H-thieno[2,3-a]pyrrolizin-4-one] | ≤ 100 | ≤ 100 | ≤ 100
CC(C)C12CC(CO)CN1C(=O)c1cc(-c3nc(NC4CCN(S(C)(=O)=O)CC4)ncc3C(F)(F)F)sc12 (stereo not drawn) [Example 31, 7-(Hydroxymethyl)-8a-isopropyl-2-(2-((1-(methylsulfonyl)piperidin-4-yl)amino)-5-(trifluoromethyl)pyrimidin-4-yl)-6,7,8,8a-tetrahydro-4H-thieno[2,3-a]pyrrolizin-4-one] | ≤ 100 | ≤ 100 | ≤ 100
